# In US7375136B2, “pH-dependent NMDA receptor antagonists” (Emory University, priority 2001, dated 2008):
# Read-outs that look alike come from different tables or passages of the source.
# What was measured:
# NR1-1a/NR2B receptors = NR1-1a/NR2B receptors (Homo sapiens, UniProt Q05586+Q13224); assay: Two electrode voltage clamp of Xenopus oocytes expressing NR1-1a and NR2B NMDA receptor subunits; inhibition of glutamate/glycine current at pH 6.9 and 7.6; format: cell-based; details: for Fold increase in potency between pH 7.6 and 6.9: IC50 at pH 7.6/IC50 at pH 6.9
# Method: Current recordings were obtained using two electrode voltage clamp of Xenopus oocytes injected with cRNA encoding the NR1-1a and NR2B NMDA receptor subunits. Cells were injected with 5-15 ng of cRNA encoding NR1-1a in combination with a 2-3 fold greater amount of either NR2B cRNA. Injected oocytes were maintained at 17° C. in Barths solution containing penicillin (10 U/ml) and streptomycin (10 μg/ml) for 2-6 days, after which recordings were made at room temperature from oocytes continuously perfused in a standard frog Ringers solution. This solution was composed of (in mM): 90 NaCl, 1.0 KCl, 10 Hepes and 0.5 BaCl2. Recording pipettes were filled with 0.3M KCl. Saturating concentrations of glutamate (20-50 μM) and glycine (20 μM) were used to activate the receptor. Drugs were prepared daily from frozen stock solutions in DMSO. Glutamate/glycine-activated currents were typically elicited from a holding potential of −20 to −40 mV. Current signals were digitized and analyzed using custom acquisition software. To study the effects of pH, oocytes were perfused with Ringer's solution at the desired pH until a stable baseline had been reached before subsequent agonist application.
# Oocytes in which the glutamate/glycine current was not stable or in which the baseline holding current drifted were discarded. Inhibition of the glutamate/glycine current by drugs was examined by applying 1-4 different concentrations of the antagonist to each oocyte. […] On average recordings were made from 14 oocytes per condition.
# Male Sprague-Dawley rats = assay: Maximal electroshock seizures, duration of tonic hindlimb extension (THE); format: in vivo; details: for THE in drug (% control): rat, mean ± sem; for Anticonvulsive effects: rat maximal electroshock, summary in words
# Description: Methods: Male Sprague-Dawley rats weighing less than 150 gm were used for these experiments. Maximal electroshock seizures were produced by delivering 200 ms biphasic square-wave pulses of 200 mA at 60 Hz via corneal electrodes, using a Wahlquist Constant Current Source (Salt Lake City, Utah). A drop of 0.9% lidocaine in saline was applied to each cornea 30 s before stimulus delivery to minimize pain. Automatic timers recorded the durations of tonic hindlimb flexion, tonic hindlimb extension (THE), clonus and flaccidity that sequentially followed stimulus delivery. The duration of THE was used as an index of seizure severity. Animals were stimulated on three consecutive days, referred to as “control”, “test”, and “recovery”. […] On “test” day, each animal received either vehicle or drug at varying intervals prior to stimulation. Reversibility of drug effect on THE was ascertained by response to stimulation administered one day after the “test” session. The values shown in the table are the mean (±sem) THE duration in the test condition, as a percentage of the mean of control and recovery conditions. Four rats were used for each time point.
# P<0.001 for difference from vehicle by one-way ANOVA with Dunnett's post hoc test. For all other conditions P>0.05.
# [1] = Table A, pH 6.9, NR1-1a/NR2B in Xenopus oocytes, read-out: IC50 at pH 6.9
# [2] = Table B, pH 6.9, NR1-1a/NR2B in Xenopus oocytes, read-out: IC50 at pH 6.9
# [3] = 30 mg/kg, 15 min from drug injection to electroshock
# [4] = 30 mg/kg, 30 min from drug injection to electroshock
# [5] = 30 mg/kg, 60 min from drug injection to electroshock
# [6] = Table D, pH 6.9, NR1-1a/NR2B in Xenopus oocytes, read-out: IC50 at pH 6.9
# NR1-1a/NR2B receptors, sequence (Q13224 27-1484, other chains not shown): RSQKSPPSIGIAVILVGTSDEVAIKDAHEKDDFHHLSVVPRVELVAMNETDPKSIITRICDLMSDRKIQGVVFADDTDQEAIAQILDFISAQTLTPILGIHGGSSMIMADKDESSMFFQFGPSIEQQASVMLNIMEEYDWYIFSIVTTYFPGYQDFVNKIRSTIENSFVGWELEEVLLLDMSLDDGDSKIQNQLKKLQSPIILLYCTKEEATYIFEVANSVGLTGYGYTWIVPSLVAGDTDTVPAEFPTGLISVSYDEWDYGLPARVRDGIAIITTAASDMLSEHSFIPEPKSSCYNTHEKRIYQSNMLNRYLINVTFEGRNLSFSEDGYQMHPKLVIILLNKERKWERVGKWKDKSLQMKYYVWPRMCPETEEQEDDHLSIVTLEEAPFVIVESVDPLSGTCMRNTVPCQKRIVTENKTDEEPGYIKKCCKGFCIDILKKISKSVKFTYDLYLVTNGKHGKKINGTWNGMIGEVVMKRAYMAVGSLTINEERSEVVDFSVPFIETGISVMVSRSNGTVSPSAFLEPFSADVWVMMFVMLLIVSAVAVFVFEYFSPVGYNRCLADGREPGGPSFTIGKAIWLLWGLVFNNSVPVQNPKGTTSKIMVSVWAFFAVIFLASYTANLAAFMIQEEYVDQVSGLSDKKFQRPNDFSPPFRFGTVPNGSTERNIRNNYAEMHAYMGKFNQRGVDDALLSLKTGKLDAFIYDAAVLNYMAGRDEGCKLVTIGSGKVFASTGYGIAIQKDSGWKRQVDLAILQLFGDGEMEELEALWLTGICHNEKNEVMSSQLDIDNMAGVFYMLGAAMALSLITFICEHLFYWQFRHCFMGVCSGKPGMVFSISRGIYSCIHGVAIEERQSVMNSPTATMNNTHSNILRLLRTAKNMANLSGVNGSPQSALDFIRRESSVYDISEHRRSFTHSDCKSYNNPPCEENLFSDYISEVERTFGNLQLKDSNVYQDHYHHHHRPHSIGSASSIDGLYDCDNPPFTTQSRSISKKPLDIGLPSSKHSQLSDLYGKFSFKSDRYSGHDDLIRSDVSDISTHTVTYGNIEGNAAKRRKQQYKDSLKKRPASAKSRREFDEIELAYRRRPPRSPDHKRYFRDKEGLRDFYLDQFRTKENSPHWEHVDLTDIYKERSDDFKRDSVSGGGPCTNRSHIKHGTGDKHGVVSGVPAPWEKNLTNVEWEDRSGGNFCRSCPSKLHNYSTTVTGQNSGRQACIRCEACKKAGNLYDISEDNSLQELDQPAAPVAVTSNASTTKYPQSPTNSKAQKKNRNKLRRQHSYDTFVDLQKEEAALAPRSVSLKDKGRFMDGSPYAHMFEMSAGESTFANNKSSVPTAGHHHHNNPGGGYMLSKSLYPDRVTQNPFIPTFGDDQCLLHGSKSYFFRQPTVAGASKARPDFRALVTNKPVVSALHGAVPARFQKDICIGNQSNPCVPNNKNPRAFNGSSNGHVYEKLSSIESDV
smiles,measurement,setting,value
"CS(=O)(=O)Nc1ccc(OC[C@@H](O)CN(CCc2ccc(Cl)c(Cl)c2)Cc2ccccc2)cc1 [93-30 (S), (S)-1-(4-Methanesulphonamidephenoxy)-3-(N-benzyl-3,4-dichloro-phenylethylamino)-2-propanol]",Fold increase in potency between pH 7.6 and 6.9,NR1-1a/NR2B receptors; Table A,16.8
same,IC50,NR1-1a/NR2B receptors; [1],0.07 µM
same,Fold increase in potency between pH 7.6 and 6.9,NR1-1a/NR2B receptors; Table C,16.8
"CS(=O)(=O)Nc1ccc(OC[C@@H](O)CN(CCc2ccc(Cl)c(Cl)c2)Cc2cccc(F)c2)cc1 [93-34 (S), (S)-1-(4-Methanesulphonamidephenoxy)-3-(N-(3-fluorobenzyl)-3,4-dichlorophenylethylamino)-2-propanol]",Fold increase in potency between pH 7.6 and 6.9,NR1-1a/NR2B receptors; Table B,4.62
same,IC50,NR1-1a/NR2B receptors; [2],0.21 µM
"CS(=O)(=O)Nc1ccc(OCC2CN(CCc3ccc(Cl)c(Cl)c3)C(=O)O2)cc1 [93-27 (S), N-(3,4-dichlorophenyl)ethyl-5-(4-methanesulphonamidophenoxy) methyl-oxazolidine-2-one]",Fold increase in potency between pH 7.6 and 6.9,NR1-1a/NR2B receptors; Table B,0.95
same,IC50,NR1-1a/NR2B receptors; [2],0.338 µM
same,Fold increase in potency between pH 7.6 and 6.9,NR1-1a/NR2B receptors; Table C,0.954
same,THE in drug (% control),Male Sprague-Dawley rats; [3],97.0 ± 0.6 % control
same,THE in drug (% control),Male Sprague-Dawley rats; [4],95.6 ± 1.3 % control
same,THE in drug (% control),Male Sprague-Dawley rats; [5],89.7 ± 0.8 % control
"CS(=O)(=O)Nc1ccc(OC[C@@H](O)CN(CCO)CCc2ccc(Cl)c(Cl)c2)cc1 [93-8 (S), (S)-1-(4-methanesulphonamidephenoxy)-e-(N-(2-hydroxyethyl)-3,4-dichlorophenylethylamino)-2-propanol]",Fold increase in potency between pH 7.6 and 6.9,NR1-1a/NR2B receptors; Table A,11.3
same,IC50,NR1-1a/NR2B receptors; [1],0.029 µM
same,Fold increase in potency between pH 7.6 and 6.9,NR1-1a/NR2B receptors; Table C,11.3
same,Anticonvulsive effects,Male Sprague-Dawley rats,Anticonvulsive effects
same,THE in drug (% control),Male Sprague-Dawley rats; [3],91.9 ± 0.4 % control
same,THE in drug (% control),Male Sprague-Dawley rats; [4],85.7 ± 2.8 % control
same,THE in drug (% control),Male Sprague-Dawley rats; [5],59.3 ± 4.1 % control
"CS(=O)(=O)Nc1ccc(OC[C@@H](O)CNCCc2ccc(Cl)c(Cl)c2)cc1.Cl [93-4 (S), (S)-1-(4-methanesulfonamideophenoxy)-3-(3,4-dichlorophenylethylamine)-2-propanol hydrochloride]",Fold increase in potency between pH 7.6 and 6.9,NR1-1a/NR2B receptors; Table B,3.54
same,IC50,NR1-1a/NR2B receptors; [2],0.026 µM
same,Fold increase in potency between pH 7.6 and 6.9,NR1-1a/NR2B receptors; Table C,3.54
same,Fold increase in potency between pH 7.6 and 6.9,NR1-1a/NR2B receptors; Table D,3.54
same,IC50,NR1-1a/NR2B receptors; [6],0.026 µM
same,Anticonvulsive effects,Male Sprague-Dawley rats,Anticonvulsive effects
same,THE in drug (% control),"Male Sprague-Dawley rats; 3 mg/kg, 15 min from drug injection to electroshock",91.1 ± 2.7 % control
same,THE in drug (% control),"Male Sprague-Dawley rats; 3 mg/kg, 60 min from drug injection to electroshock",109 ± 11.5 % control
same,THE in drug (% control),Male Sprague-Dawley rats; [3],66.6 ± 12.5 % control
same,THE in drug (% control),Male Sprague-Dawley rats; [5],30.8 ± 12.1 % control
"CCN(CCc1ccc(Cl)c(Cl)c1)C[C@H](O)COc1ccc(NS(C)(=O)=O)cc1 [93-5 (S), (S)-1-(4-Methanesulphonamidephenoxy)-3-(N-ethyl-3,4-dichloro-phenylethylamino)-2-propanol]",Fold increase in potency between pH 7.6 and 6.9,NR1-1a/NR2B receptors; Table A,8.00
same,IC50,NR1-1a/NR2B receptors; [1],0.02 µM
same,Fold increase in potency between pH 7.6 and 6.9,NR1-1a/NR2B receptors; Table C,8.00
"CN(c1ccc(OC[C@@H](O)CNCCc2ccc(Cl)c(Cl)c2)cc1)S(C)(=O)=O [93-7 (S), (S)-1-(4-N-methyl-methanesulphonamidephenoxy)-3-(3,4-dichloro-phenylethylamino)-2-propanol]",IC50,NR1-1a/NR2B receptors,2.33 µM
same,Fold increase in potency between pH 7.6 and 6.9,NR1-1a/NR2B receptors; Table D,5.51
"CS(=O)(=O)Nc1cccc(OC[C@@H](O)CNCCc2ccc(Cl)c(Cl)c2)c1 [93-9 (S), (S)-1-(3-Methanesulphonamidephenoxy)3-(3,4-dichlorophenylcthyl-amino)-2-propanol]",IC50,NR1-1a/NR2B receptors,0.208 µM
same,Fold increase in potency between pH 7.6 and 6.9,NR1-1a/NR2B receptors; Table D,8.19
"CS(=O)(=O)Nc1ccccc1OC[C@@H](O)CNCCc1ccc(Cl)c(Cl)c1 [93-32 (S), 1-(2-Methanesulphonamidephenoxy)-3-(3,4-dichlorophenylethylamino)-2-propanol]",IC50,NR1-1a/NR2B receptors,17.9 µM
"O=S(=O)(Nc1ccc(OCC(O)CNCCc2ccc(Cl)c(Cl)c2)cc1)c1ccccc1 [93-29 (S), 1-(4-benzenesulphonamidophenoxy)-3-(3,4-dichloro-phenylethyl-amino)-2-propanol]",IC50,NR1-1a/NR2B receptors,1.16 µM
same,Fold increase in potency between pH 7.6 and 6.9,NR1-1a/NR2B receptors; Table A,18.0
same,Fold increase in potency between pH 7.6 and 6.9,NR1-1a/NR2B receptors; Table D,18.02
"NC(=O)N1c2ccccc2C=Cc2ccccc21 [Carbamazepine, reference compound]",THE in drug (% control),"Male Sprague-Dawley rats; 40 mg/kg, 30 min from drug injection to electroshock",0.0 ± 0.0 % control
"CN(CCc1ccc(Cl)c(Cl)c1)CC(O)COc1ccc(NS(C)(=O)=O)cc1.Cl (racemic) [Compound 93, (R,S) 1-(4-methanesulfonamidophenoxy)-3-(N-methyl-3,4-dichlorophenylethylamine)-2-propanol hydrochloride, reference compound]",Anticonvulsive effects,Male Sprague-Dawley rats,Anticonvulsive effects
same,THE in drug (% control),"Male Sprague-Dawley rats; 10 mg/kg, 15 min from drug injection to electroshock",78.2 ± 4.5 % control
same,THE in drug (% control),"Male Sprague-Dawley rats; 10 mg/kg, 30 min from drug injection to electroshock",58.5 ± 11.3 % control
same,THE in drug (% control),"Male Sprague-Dawley rats; 10 mg/kg, 60 min from drug injection to electroshock",62.4 ± 3.9 % control
same,THE in drug (% control),"Male Sprague-Dawley rats; 30 mg/kg, 240 min from drug injection to electroshock",96.2 ± 1.7 % control
"CCCCN(CCc1ccc(Cl)c(Cl)c1)C[C@H](O)COc1ccc(NS(C)(=O)=O)cc1 [93-31 (S), (S)-1-(4-Methanesulphonamidephenoxy)-3-(N-butyl-3,4-dichloro-phenylethylamino)-2-propanol]",Fold increase in potency between pH 7.6 and 6.9,NR1-1a/NR2B receptors; Table A,51.2
same,IC50,NR1-1a/NR2B receptors; [1],0.058 µM
same,Fold increase in potency between pH 7.6 and 6.9,NR1-1a/NR2B receptors; Table C,51.2
"CCCN(CCc1ccc(Cl)c(Cl)c1)C[C@H](O)COc1ccc(NS(C)(=O)=O)cc1 [93-6 (S), (S)-1-(4-Methanesulphonamidephenoxy)3-(N-propyl-3,4-dichloro-phenylethylamino)-2-propanol]",Fold increase in potency between pH 7.6 and 6.9,NR1-1a/NR2B receptors; Table A,6.54
same,IC50,NR1-1a/NR2B receptors; [1],0.111 µM
same,Fold increase in potency between pH 7.6 and 6.9,NR1-1a/NR2B receptors; Table C,6.54
"CS(=O)(=O)Nc1ccc(OC[C@@H](O)CN(CCc2ccc(Cl)c(Cl)c2)Cc2ccccc2F)cc1 [93-35 (S), (S)-1-(4-Methanesulphonamidephenoxy)-3-(N-(2-fluorobenzyl)-3,4-dichlorophenylethylamino)-2-propanol]",Fold increase in potency between pH 7.6 and 6.9,NR1-1a/NR2B receptors; Table B,3.60
same,IC50,NR1-1a/NR2B receptors; [2],0.048 µM
"CS(=O)(=O)Nc1ccc(OC[C@@H](O)CN(CCc2ccc(Cl)c(Cl)c2)Cc2ccc(F)cc2)cc1 [93-33 (S), (S)-1-(4-Methanesulphonamidephenoxy)-3-(N-(4-fluorobenzyl)-3,4-dichlorophenylethylamino)-2-propanol]",Fold increase in potency between pH 7.6 and 6.9,NR1-1a/NR2B receptors; Table B,0.810
same,IC50,NR1-1a/NR2B receptors; [2],0.52 µM
"C[C@@H](CN1CCC(Cc2ccccc2)CC1)[C@@H](O)c1ccc(O)cc1 [Ro256981, reference compound]",Fold increase in potency between pH 7.6 and 6.9,NR1-1a/NR2B receptors; Table B,0.444
same,IC50,NR1-1a/NR2B receptors; [2],0.018 µM
OC(CNCCc1ccc(Cl)c(Cl)c1)COc1ccc(OC(F)(F)F)cc1 (racemic) [Compound 93-16],Fold increase in potency between pH 7.6 and 6.9,NR1-1a/NR2B receptors; Table D,4.82
same,IC50,NR1-1a/NR2B receptors; [6],11.2 µM
"CN(CCc1ccc(Cl)c(Cl)c1)C[C@H](O)COc1ccc(NS(C)(=O)=O)cc1 [93-2 (S), (S)-1-(4-Methanesulphonamidephenoxy)3-(N-methyl-3,4-dichloro-phenylethylamino)-2-propanol]",Fold increase in potency between pH 7.6 and 6.9,NR1-1a/NR2B receptors; Table A,5.87
same,IC50,NR1-1a/NR2B receptors; [1],0.063 µM
same,Fold increase in potency between pH 7.6 and 6.9,NR1-1a/NR2B receptors; Table C,5.87
"CC(=O)OC(COc1ccc(NS(C)(=O)=O)cc1)CN(CCc1ccc(Cl)c(Cl)c1)C(C)=O [93-28 (S), 1-(4-Methanesulphonamidophenoxy)-3-(N-acetyl-3,4-dichloro-phenylethylamino)-2-propyl acetate]",Fold increase in potency between pH 7.6 and 6.9,NR1-1a/NR2B receptors; Table A,11.1
same,IC50,NR1-1a/NR2B receptors; [1],1.64 µM
"O=[N+]([O-])c1ccc(OC[C@@H](O)CNCCc2ccc(Cl)c(Cl)c2)cc1 [93-10 (S), (S)-1-(4-Nitrophenoxy)3-(3,4-dichlorophenylethylamino)-2propanol]",IC50,NR1-1a/NR2B receptors,12.1 µM
same,Fold increase in potency between pH 7.6 and 6.9,NR1-1a/NR2B receptors; Table D,1.60
